Measured values: patent publication US20230398237A1 (priority 2020, published 2023)

Tests used:
[1] = tested on: serum proteins (fetal bovine serum); test: Serum protein binding test by agarose gel electrophoresis; type: in vitro ADME; details: 10% FBS, 37° C., 30 min
Experimental: Coomassie brilliant blue 250 (CBB) was used to stain FBS. Color pictures of CBB-stained protein were inserted.
All these samples were analyzed using 2% agarose gel electrophoresis. […] The fluorescence images were taken by Carestream In-vivo FX Pro imaging system under 790 nm/830 nm. Non-invasive fluorescence imaging of body with ICG-PEG conjugates and ex vivo images

[2] = Clearance efficiencies in urine and feces; details: within 24 h post intravenous injection
From the text: Then, the urine and feces were quantified based on fluorescence and each standard curve of conjugates were built in control urine and control feces.

[3] = before elimination through the liver; cited from earlier work
[4] = tested on: organic anion transporter; test: Probenecid inhibition studies (renal clearance efficiency); type: in vivo, BALB/c mice; details: 200 mg/kg probenecid i.p., urine at 30 min p.i.
Experimental: BALB/c mice were pre-treated by intraperitoneal injection of 200 mg/kg probenecid and control group were treated by PBS. […] The mice were anesthetized under 3% isoflurane for 30 min under steady breath rate of 7-8 times per 15 sec. After 30 min, the urine was collected from bladder and quantified by fluorescence.

Row | serum protein binding [1] | clearance percentage in feces [2] | Compound | time retained in normal renal parenchyma [3] | effect of probenecid on renal clearance efficiency [4]
1 | completely binds protein | 85.3 % ID | CC1(C)C(/C=C/C=C/C=C/C=C2\N(CCCCS(=O)(=O)O)c3ccc4ccccc4c3C2(C)C)=[N+](CCCCS(=O)(=O)[O-])c2ccc3ccccc3c21 [ICG, Indocyanine green] | < 15 min | –
2 | – | – | FITC-inulin | – | no significant difference
